# Reference: publication PMC6440935, “Characterization and phase I study of CLR457, an orally bioavailable pan-class I PI3-kinase inhibitor” (Investigational New Drugs, 2018)
# Where two headings read alike, the source gives them in different places.
# From the text: The primary objective was to define the maximum tolerated dose (MTD). Secondary objectives included assessments for safety, tolerability, pharmacokinetic (PK) profile, and preliminary antitumor activity.
# Patients had histologically documented locally advanced or metastatic solid tumors harboring an activating PIK3CA mutation or amplification, PTEN loss of function, c-MET activation, [16, 17] […] Other key inclusion criteria included age ≥ 18 years, Eastern Cooperative Oncology Group performance status (ECOG-PS) ≤2, adequate organ function, measurable or non-measurable disease as determined by Response Evaluation Criteria in Solid Tumors (RECIST) version 1.1.
# The starting dose for CLR457 was 5 mg QD, based on preclinical toxicology studies in accordance with ICH guidelines, and was administered at the same time each day ±2 h in a fasted state. Various doses were planned up to 300 mg QD until MTD determination.
# Safety was evaluated by incidence, nature, severity, and relatedness of adverse events (AEs), and graded according to National Cancer Institute - Common Terminology Criteria for Adverse Events (NCI CTCAE) v4.0.3. DLTs were defined as any hematologic or non-hematologic ≥ Grade 3 AE assessed as possibly related to CLR457 that occurred within the first cycle (28 days) of treatment. In addition, uncontrolled (> 14 days) Grade 2 rash or hyperglycemia were also considered DLTs. All AEs regardless of attribution were collected until 30 days following the last administration of treatment or study discontinuation/termination.
# Descriptive methods were used to tabulate toxicity and response endpoints in the clinical trial. All patients treated with CLR457 were included for safety. […] Dose escalation was guided by an adaptive Bayesian logistic regression model (BLRM) incorporating the escalation with overdose control (EWOC) principle. […] The study data (including DLTs during cycle 1 and other safety and PK data) were reviewed by the sponsor and trial investigators at each dose level. […] The Full Analysis Set (FAS) included all patients who received at least one dose of CLR457. Safety set included all patients who received at least one dose of CLR457 and had at least one valid post-baseline assessment. The Dose-determining set (DDS) included all patients from the safety set who either met the following minimum exposure criterion and had sufficient safety evaluations, or experienced a DLT during Cycle 1 (the first 28 days of dosing). The Pharmacokinetic analysis set included all patients who had at least one blood sample providing evaluable PK data.
smiles,measurement,setting,value
C[C@H]1OC(=O)N(c2cc(-c3cnc(N)nc3C(F)(F)F)nc(N3CCOCC3)n2)[C@H]1CO [CLR457],DLT hyperglycemia in the first cycle,"5 mg, DDS N = 2",0 n (%)
same,DLT maculo-papular rash in the first cycle,"5 mg, DDS N = 2",0 n (%)
same,Total DLTs in the first cycle,"5 mg, DDS N = 2",0 n (%)
same,"Treatment discontinuation, primary reason adverse event","5 mg, FAS N = 2",0 n (%)
same,DLT hyperglycemia in the first cycle,"10 mg, DDS N = 3",0 n (%)
same,DLT maculo-papular rash in the first cycle,"10 mg, DDS N = 3",0 n (%)
same,Total DLTs in the first cycle,"10 mg, DDS N = 3",0 n (%)
same,"Treatment discontinuation, primary reason adverse event","10 mg, FAS N = 3",0 n (%)
same,DLT hyperglycemia in the first cycle,"20 mg, DDS N = 4",0 n (%)
same,DLT maculo-papular rash in the first cycle,"20 mg, DDS N = 4",0 n (%)
same,Total DLTs in the first cycle,"20 mg, DDS N = 4",0 n (%)
same,"Treatment discontinuation, primary reason adverse event","20 mg, FAS N = 4",0 n (%)
same,DLT maculo-papular rash,40 mg,one
same,DLT hyperglycemia in the first cycle,"40 mg, DDS N = 5",0 n (%)
same,DLT maculo-papular rash in the first cycle,"40 mg, DDS N = 5",1 (20.0) n (%)
same,Total DLTs in the first cycle,"40 mg, DDS N = 5",1 (20.0) n (%)
same,"Treatment discontinuation, primary reason adverse event","40 mg, FAS N = 5",1 (20.0) n (%)
same,DLT hyperglycemia in the first cycle,"70 mg, DDS N = 6",0 n (%)
same,DLT maculo-papular rash in the first cycle,"70 mg, DDS N = 6",0 n (%)
same,Total DLTs in the first cycle,"70 mg, DDS N = 6",0 n (%)
same,"Treatment discontinuation, primary reason adverse event","70 mg, FAS N = 6",0 n (%)
same,DLT Grade 3 hyperglycemia,100 mg,1 patient
same,DLT maculo-papular rash,100 mg,two
same,Patients with ≥ grade 3 toxicity,100 mg cohort (n = 11),100%
same,Rash ≥ grade 3,100 mg cohort (n = 11),45.5%
same,Patients with a DLT in the 100 mg cohort,"100 mg, 3 of 11 patients",27.3%
same,Patients with at least one SAE irrespective of treatment,"100 mg, 7 of 11 pts",63.6%
same,DLT hyperglycemia in the first cycle,"100 mg, DDS N = 9",1 (11.1) n (%)
same,DLT maculo-papular rash in the first cycle,"100 mg, DDS N = 9",2 (22.2) n (%)
same,Total DLTs in the first cycle,"100 mg, DDS N = 9",3 (33.3) n (%)
same,"Treatment discontinuation, primary reason adverse event","100 mg, FAS N = 11",4 (36.4) n (%)
same,Diarrhea requiring dose interruption or reduction,4 patients,22%
same,Maculo-papular rash requiring dose interruption or reduction,8 patients,44.44%
same,DLT hyperglycemia in the first cycle,"All Patients, DDS N = 29",1 (3.4) n (%)
same,DLT maculo-papular rash in the first cycle,"All Patients, DDS N = 29",3 (10.3) n (%)
same,Total DLTs in the first cycle,"All Patients, DDS N = 29",4 (13.8) n (%)
same,"Treatment discontinuation, primary reason adverse event","All Patients, FAS N = 31",5 (16.1) n (%)
same,DLT maculo-papular rash,all doses,3 patients
same,On-study deaths attributed to the study drug,all patients,none
same,"Maculo-papular rash, grade 3/4",all patients N = 31,25.8%
same,Patients with Grade 3/4 drug-related AEs,all patients N = 31,51.6%
same,On-study deaths,"all patients, 5 disease progression, 1 multi-organ failure",Six
same,AEs requiring dose interruptions or dose reductions,"all patients, 18 patients",58.1%
same,"Asthenia, Grade ≥ 3","drug-related, 5 mg, N = 2",0 n (%)
same,"Chills, All Grade","drug-related, 5 mg, N = 2",0 n (%)
same,"Chills, Grade ≥ 3","drug-related, 5 mg, N = 2",0 n (%)
same,"Colitis, All Grade","drug-related, 5 mg, N = 2",0 n (%)
same,"Colitis, Grade ≥ 3","drug-related, 5 mg, N = 2",0 n (%)
same,"Cough, All Grade","drug-related, 5 mg, N = 2",0 n (%)
same,"Cough, Grade ≥ 3","drug-related, 5 mg, N = 2",0 n (%)
same,"Decreased appetite, All Grade","drug-related, 5 mg, N = 2",0 n (%)
same,"Decreased appetite, Grade ≥ 3","drug-related, 5 mg, N = 2",0 n (%)
same,"Decreased neutrophil count, All Grade","drug-related, 5 mg, N = 2",0 n (%)
same,"Decreased neutrophil count, Grade ≥ 3","drug-related, 5 mg, N = 2",0 n (%)
same,"Dehydration, All Grade","drug-related, 5 mg, N = 2",0 n (%)
same,"Dehydration, Grade ≥ 3","drug-related, 5 mg, N = 2",0 n (%)
same,"Diarrhea, All Grade","drug-related, 5 mg, N = 2",0 n (%)
same,"Diarrhea, Grade ≥ 3","drug-related, 5 mg, N = 2",0 n (%)
same,"Dry mouth, All Grade","drug-related, 5 mg, N = 2",0 n (%)
same,"Dry mouth, Grade ≥ 3","drug-related, 5 mg, N = 2",0 n (%)
same,"Dry skin, All Grade","drug-related, 5 mg, N = 2",0 n (%)
same,"Dry skin, Grade ≥ 3","drug-related, 5 mg, N = 2",0 n (%)
same,"Dysgeusia, All Grade","drug-related, 5 mg, N = 2",0 n (%)
same,"Dysgeusia, Grade ≥ 3","drug-related, 5 mg, N = 2",0 n (%)
same,"Fatigue, All Grade","drug-related, 5 mg, N = 2",1 (50.0) n (%)
same,"Fatigue, Grade ≥ 3","drug-related, 5 mg, N = 2",0 n (%)
same,"Headache, All Grade","drug-related, 5 mg, N = 2",0 n (%)
same,"Headache, Grade ≥ 3","drug-related, 5 mg, N = 2",0 n (%)
same,"Hyperglycemia, All Grade","drug-related, 5 mg, N = 2",0 n (%)
same,"Hyperglycemia, Grade ≥ 3","drug-related, 5 mg, N = 2",0 n (%)
same,"Hypomagnesaemia, All Grade","drug-related, 5 mg, N = 2",0 n (%)
same,"Hypomagnesaemia, Grade ≥ 3","drug-related, 5 mg, N = 2",0 n (%)
same,"Maculo-papular rash, All Grade","drug-related, 5 mg, N = 2",0 n (%)
same,"Maculo-papular rash, Grade ≥ 3","drug-related, 5 mg, N = 2",0 n (%)
same,"Nausea, All Grade","drug-related, 5 mg, N = 2",0 n (%)
same,"Nausea, Grade ≥ 3","drug-related, 5 mg, N = 2",0 n (%)
same,"Pneumonitis, All Grade","drug-related, 5 mg, N = 2",0 n (%)
same,"Pneumonitis, Grade ≥ 3","drug-related, 5 mg, N = 2",0 n (%)
same,"Pruritus, All Grade","drug-related, 5 mg, N = 2",0 n (%)
same,"Pruritus, Grade ≥ 3","drug-related, 5 mg, N = 2",0 n (%)
same,"Pyrexia, All Grade","drug-related, 5 mg, N = 2",0 n (%)
same,"Pyrexia, Grade ≥ 3","drug-related, 5 mg, N = 2",0 n (%)
same,"Rash, All Grade","drug-related, 5 mg, N = 2",0 n (%)
same,"Rash, Grade ≥ 3","drug-related, 5 mg, N = 2",0 n (%)
same,"Stomatitis, All Grade","drug-related, 5 mg, N = 2",0 n (%)
same,"Stomatitis, Grade ≥ 3","drug-related, 5 mg, N = 2",0 n (%)
same,"Vomiting, All Grade","drug-related, 5 mg, N = 2",0 n (%)
same,"Vomiting, Grade ≥ 3","drug-related, 5 mg, N = 2",0 n (%)
same,"Weight decreased, All Grade","drug-related, 5 mg, N = 2",0 n (%)
same,"Weight decreased, Grade ≥ 3","drug-related, 5 mg, N = 2",0 n (%)
same,"Asthenia, Grade ≥ 3","drug-related, 10 mg, N = 3",0 n (%)
same,"Chills, All Grade","drug-related, 10 mg, N = 3",0 n (%)
same,"Chills, Grade ≥ 3","drug-related, 10 mg, N = 3",0 n (%)
same,"Colitis, All Grade","drug-related, 10 mg, N = 3",0 n (%)
same,"Colitis, Grade ≥ 3","drug-related, 10 mg, N = 3",0 n (%)
same,"Cough, All Grade","drug-related, 10 mg, N = 3",0 n (%)
